In patent US10770169B2, “Method of providing a treatment to a subject based on a dynamic pathway map” (THE REGENTS OF THE UNIVERSITY OF CALIFORNIA, priority 2010, dated 2020):
Read-outs that look alike come from different tables or passages of the source.

Test system: panel of 55 breast cancer cell lines
Experiment: Cell growth inhibition assay (Cell Titer Glo, 72 h, 9 doses; GI50, TGI, LC50)
Assay type: cell-based, human
Conditions: Homo sapiens, read-out: GI50 (converted)
[1] = AU565, AU565 cell line, censored GI50 values
[2] = BT-474, BT474 cell line, censored GI50 values
[3] = BT-483, BT483 cell line, censored GI50 values
[4] = BT-549, BT549 cell line, censored GI50 values
[5] = CAMA-1, CAMA1 cell line, censored GI50 values
[6] = HCC38, HCC38 cell line, censored GI50 values
[7] = HCC70, HCC70 cell line, censored GI50 values
[8] = HCC202, HCC202 cell line, censored GI50 values
[9] = HCC1187, HCC1187 cell line, censored GI50 values
[10] = HCC1419, HCC1419 cell line, censored GI50 values
[11] = HCC1428, HCC1428 cell line, censored GI50 values
[12] = HCC1500, HCC1500 cell line, censored GI50 values
[13] = HCC1806, HCC1806 cell line, censored GI50 values
[14] = HCC1937, HCC1937 cell line, censored GI50 values
[15] = HCC1954, HCC1954 cell line, censored GI50 values
[16] = HCC2185 cell line, censored GI50 values
[17] = HCC3153 cell line, censored GI50 values
[18] = MCF7, MCF7 cell line, censored GI50 values
[19] = MDA-MB-134-VI, MDAMB134VI cell line, censored GI50 values
[20] = MDA-MB-175-VII, MDAMB175VII cell line, censored GI50 values
[21] = MDA-MB-231, MDAMB231 cell line, censored GI50 values
[22] = MDA-MB-361, MDAMB361 cell line, censored GI50 values
[23] = MDA-MB-415, MDAMB415 cell line, censored GI50 values
[24] = MDA-MB-468, MDAMB468 cell line, censored GI50 values
[25] = SK-BR-3, SKBR3 cell line, censored GI50 values
[26] = SUM52PE, SUM52PE cell line, censored GI50 values
[27] = SUM149PT, SUM149PT cell line, censored GI50 values
[28] = SUM1315MO2, SUM1315MO2 cell line, censored GI50 values
[29] = SUM-159-PT, SUM159PT cell line, censored GI50 values
[30] = UACC-812, UACC812 cell line, censored GI50 values

Structure (SMILES): COC1=C2C[C@@H](C)C[C@H](OC)[C@H](O)[C@@H](C)/C=C(\C)[C@H](OC(N)=O)[C@@H](OC)/C=C\C=C(/C)C(=O)NC(=CC1=O)C2=O [Geldanamycin]
- GI50 (600MPE cell line, censored GI50 values): 0.0389 µM
- GI50 [1]: 0.0513 µM
- GI50 (AU565, cell line AU565): 0.0513 µM
- GI50 [2]: 0.0145 µM
- GI50 (BT-474, cell line BT474): 0.0145 µM
- GI50 [3]: 0.145 µM
- GI50 (BT-483, cell line BT483): 0.145 µM
- GI50 [4]: 0.0055 µM
- GI50 (BT-549, cell line BT549): 0.0055 µM
- GI50 [5]: 0.0794 µM
- GI50 (CAMA-1, cell line CAMA1): 0.0794 µM
- GI50 [6]: 0.0288 µM
- GI50 (HCC38, cell line HCC38): 0.0288 µM
- GI50 [7]: 0.0933 µM
- GI50 (HCC70, cell line HCC70): 0.0933 µM
- GI50 [8]: 0.00148 µM
- GI50 (HCC202, cell line HCC202): 0.00148 µM
- GI50 (HCC1143, HCC1143 cell line, censored GI50 values): 0.0813 µM
- GI50 (HCC1143, cell line HCC1143): 0.0813 µM
- GI50 [9]: 0.0158 µM
- GI50 (HCC1187, cell line HCC1187): 0.0158 µM
- GI50 (HCC1395, HCC1395 cell line, censored GI50 values): 0.0617 µM
- GI50 (HCC1395, cell line HCC1395): 0.0617 µM
- GI50 [10]: 0.0324 µM
- GI50 (HCC1419, cell line HCC1419): 0.0324 µM
- GI50 [11]: 0.0316 µM
- GI50 (HCC1428, cell line HCC1428): 0.0316 µM
- GI50 [12]: 0.155 µM
- GI50 (HCC1500, cell line HCC1500): 0.155 µM
- GI50 [13]: 0.0759 µM
- GI50 (HCC1806, cell line HCC1806): 0.0759 µM
- GI50 [14]: 0.0295 µM
- GI50 (HCC1937, cell line HCC1937): 0.0295 µM
- GI50 [15]: 0.00724 µM
- GI50 (HCC1954, cell line HCC1954): 0.00724 µM
- GI50 [16]: 0.0182 µM
- GI50 [17]: 0.0676 µM
- GI50 (LY2 cell line, censored GI50 values): 0.1 µM
- GI50 [18]: 0.24 µM
- GI50 (MCF7, cell line MCF7): 0.24 µM
- GI50 [19]: 0.0209 µM
- GI50 [20]: 0.0178 µM
- GI50 [21]: 0.0288 µM
- GI50 (MDA-MB-231, cell line MDAMB231): 0.0288 µM
- GI50 [22]: 0.0257 µM
- GI50 (MDA-MB-361, cell line MDAMB361): 0.0257 µM
- GI50 [23]: 0.0575 µM
- GI50 (MDA-MB-415, cell line MDAMB415): 0.0575 µM
- GI50 (MDA-MB-436, MDAMB436 cell line, censored GI50 values): 0.148 µM
- GI50 (MDA-MB-436, cell line MDAMB436): 0.148 µM
- GI50 (MDA-MB-453, MDAMB453 cell line, censored GI50 values): 0.0195 µM
- GI50 (MDA-MB-453, cell line MDAMB453): 0.0195 µM
- GI50 [24]: 0.0275 µM
- GI50 (MDA-MB-468, cell line MDAMB468): 0.0275 µM
- GI50 [25]: 0.0162 µM
- GI50 (SK-BR-3, cell line SKBR3): 0.0162 µM
- GI50 [26]: 0.012 µM
- GI50 (SUM52PE, cell line SUM52PE): 0.012 µM
- GI50 [27]: 0.00603 µM
- GI50 (SUM149PT, cell line SUM149PT): 0.00603 µM
- GI50 (SUM185PE, SUM185PE cell line, censored GI50 values): 0.02 µM
- GI50 (SUM185PE, cell line SUM185PE): 0.02 µM
- GI50 [28]: 0.038 µM
- GI50 [29]: 0.00631 µM
- GI50 (SUM-159-PT, cell line SUM159PT): 0.00631 µM
- GI50 [30]: 0.0123 µM
- GI50 (UACC-812, cell line UACC812): 0.0123 µM
- GI50 (UACC-893, UACC893 cell line, censored GI50 values): 0.011 µM
- GI50 (UACC-893, cell line UACC893): 0.011 µM
- GI50 (ZR-75-1, ZR751 cell line, censored GI50 values): 0.117 µM
- GI50 (ZR-75-1, cell line ZR751): 0.117 µM
- GI50 (ZR-75-30, ZR7530 cell line, censored GI50 values): 0.00708 µM
- GI50 (ZR-75-30, cell line ZR7530): 0.00708 µM
- GI50 (ZR-75B, ZR75B cell line, censored GI50 values): 0.0933 µM
- GI50 (ZR-75B, cell line ZR75B): 0.0933 µM
- GI50 (cell line 600MPE): 0.0389 µM
- GI50 (cell line HCC2185): 0.0182 µM
- GI50 (cell line HCC3153): 0.0676 µM
- GI50 (cell line LY2): 0.1 µM
- GI50 (cell line MDAMB134V): 0.0209 µM
- GI50 (cell line MDAMB175V): 0.0178 µM
- GI50 (cell line SUM1315MO): 0.038 µM

Structure (SMILES): CO[C@H]1C[C@@H]2CC[C@@H](C)[C@@](O)(O2)C(=O)C(=O)N2CCCC[C@H]2C(=O)O[C@H]([C@H](C)C[C@@H]2CC[C@@H](O)[C@H](OC)C2)CC(=O)[C@H](C)/C=C(\C)[C@@H](O)[C@@H](OC)C(=O)[C@H](C)C[C@H](C)/C=C/C=C/C=C/1C [Rapamycin]
- GI50 [1]: 0.0316 µM
- GI50 (AU565, cell line AU565): 0.0316 µM
- GI50 (BT-20, BT20 cell line, censored GI50 values): 0.0135 µM
- GI50 (BT-20, cell line BT20): 0.0135 µM
- GI50 [2]: 0.0151 µM
- GI50 (BT-474, cell line BT474): 0.0151 µM
- GI50 [3]: 0.00166 µM
- GI50 (BT-483, cell line BT483): 0.00166 µM
- GI50 [4]: 33.1 µM
- GI50 (BT-549, cell line BT549): 33.1 µM
- GI50 [5]: 0.0151 µM
- GI50 (CAMA-1, cell line CAMA1): 0.0151 µM
- GI50 [6]: 0.0339 µM
- GI50 (HCC38, cell line HCC38): 0.0339 µM
- GI50 [7]: 0.12 µM
- GI50 (HCC70, cell line HCC70): 0.12 µM
- GI50 [8]: 0.00501 µM
- GI50 (HCC202, cell line HCC202): 0.00501 µM
- GI50 [9]: 0.0324 µM
- GI50 (HCC1187, cell line HCC1187): 0.0324 µM
- GI50 [10]: 0.00437 µM
- GI50 (HCC1419, cell line HCC1419): 0.00437 µM
- GI50 [11]: 0.0513 µM
- GI50 (HCC1428, cell line HCC1428): 0.0513 µM
- GI50 [12]: 93.3 µM
- GI50 (HCC1500, cell line HCC1500): 93.3 µM
- GI50 [13]: 66.1 µM
- GI50 (HCC1806, cell line HCC1806): 66.1 µM
- GI50 [14]: 1.23 µM
- GI50 (HCC1937, cell line HCC1937): 1.23 µM
- GI50 [15]: 0.00355 µM
- GI50 (HCC1954, cell line HCC1954): 0.00355 µM
- GI50 [16]: 0.00162 µM
- GI50 [17]: 5.62 µM
- GI50 [18]: 0.145 µM
- GI50 (MCF7, cell line MCF7): 0.145 µM
- GI50 [19]: 0.00676 µM
- GI50 (MDA-MB-157, cell line MDAMB157): 166 µM
- GI50 [20]: 0.00372 µM
- GI50 [21]: 3.55 µM
- GI50 (MDA-MB-231, cell line MDAMB231): 3.55 µM
- GI50 [22]: 0.741 µM
- GI50 (MDA-MB-361, cell line MDAMB361): 0.741 µM
- GI50 [23]: 0.00209 µM
- GI50 (MDA-MB-415, cell line MDAMB415): 0.00209 µM
- GI50 (MDA-MB-436, cell line MDAMB436): 166 µM
- GI50 [24]: 2.82 µM
- GI50 (MDA-MB-468, cell line MDAMB468): 2.82 µM
- GI50 [25]: 0.0603 µM
- GI50 (SK-BR-3, cell line SKBR3): 0.0603 µM
- GI50 (SUM44PE cell line, censored GI50 values): 0.00055 µM
- GI50 [26]: 0.00302 µM
- GI50 (SUM52PE, cell line SUM52PE): 0.00302 µM
- GI50 [27]: 9.33 µM
- GI50 (SUM149PT, cell line SUM149PT): 9.33 µM
- GI50 (SUM225CWN, SUM225CWN cell line, censored GI50 values): 0.0166 µM
- GI50 (SUM225CWN, cell line SUM225CWN): 0.0166 µM
- GI50 [28]: 3.31 µM
- GI50 [29]: 0.724 µM
- GI50 (SUM-159-PT, cell line SUM159PT): 0.724 µM
- GI50 (T47D, T47D cell line, censored GI50 values): 0.49 µM
- GI50 (T47D, cell line T47D): 0.49 µM
- GI50 [30]: 0.0468 µM
- GI50 (UACC-812, cell line UACC812): 0.0468 µM
- GI50 (UACC-893, cell line UACC893): 166 µM
- GI50 (cell line HCC2185): 0.00162 µM
- GI50 (cell line HCC3153): 5.62 µM
- GI50 (cell line MDAMB134V): 0.00676 µM
- GI50 (cell line MDAMB175V): 0.00372 µM
- GI50 (cell line SUM44PE): 0.00055 µM
- GI50 (cell line SUM1315MO): 3.31 µM
